The subject of the assay is IDH1 mutant R132C in fibrosarcoma cell line HT1080. The assay can be described thus: HT1080 cell assay (intracellular 2HG and αKG). The format is cell-based. As to conditions: Homo sapiens; for IC50: 1 hour + 18 hours incubation; for HT1080 (R132C, 2-hydroxyglutarate) IC50: read-out: HT1080 (R132C, 2-hydroxyglutarate) IC50 (μM), intracellular 2HG, 1 hour + 18 hours incubation. As for the experimental part: To test the cellular inhibition of IDH1 mutant R132C, the fibrosarcoma cell line HT1080 (purchased from ATCC) is used. For testing cell-based inhibition of the R132H mutation, the U87MG glioma cell line (ATCC) was stably transfected with a DNA construct expressing the R132H mutant enzyme.
Fifteen thousand cells are plated in poly-D-lys coated 96 well plates (15,000 cells/well) 18-24 hours prior to treatment with compounds. Four hours prior to compound treatment, cells are glutamine-starved by removing normal media and replacing with glutamine-free media. Following starvation, cells are then treated with different concentrations of test compounds (20 μM to 1 nM) dissolved in glutamine free media containing DMSO at a final concentration of 0.2%. The initial compound incubation is for 1 hour at 37° C./5% CO2. After 1 hour, glutamine is added to a final 2 mM concentration and the treated cells are then incubated for a further 18 hours at 37° C./5% CO2. Following the 18 hour incubation, intracellular 2HG and αKG are analyzed in cell lysates. Lysates are prepared following removal of media and addition of buffer containing 25 mM Tris-HCl pH 7.5, 150 mM NaCl, 1 mM EDTA, 1 mM EGTA/1% Triton-X 100 to the cells. An aliquot of lysate is added to a mix of d6-αKG and d5-3HG as internal standards and the mixture is treated with O-benzylhydroxylamine in the presence of N-(3-dimethylaminopropyl)-N′-ethylcarbodiimide hydrochloride (EDC) and pyridine. Analyte derivatives are then extracted with EtOAc, dried, and then reconstituted with 50% MeOH in H2O. Samples prepared as described are injected into the HPLC to separate 2HG and αKG derivatives (and corresponding internal standards) using a reverse phase chromatography in a C18 column. Analysis of the samples is carried out using a 6460 triple quadrupole mass spectrometer (G6460A Agilent). The 2HG and αKG signals detected are transformed into analyte concentration using the ratio of αKG/d6-αKG and the ratio of 2HG/d5-3HG that is extrapolated within a calibration curve. Percent inhibition for each individual sample is obtained after normalizing calculated 2HG or aKG concentration to maximum and minimum references obtained in the presence and in the absence of glutamine during cell treatment with compounds. IC50 values are obtained from individual % inhibition using a sigmoidal dose-response 4-parameter equation. These calculations are carried out automatically using Activity Base (IDBS) or Screener (Genedata) data analysis programs.

Setting [1] is: HT-1080, 19 h, intracellular 2HG, read-out: HT1080 (R132C, 2-hydroxyglutarate) IC50.
Setting [2] is: HT-1080, intracellular αKG, read-out: HT1080 (R132C, αKG) IC50.

The source of these data is patent publication US10253041B2, “7-phenylethylamino-4H-pyrimido[4,5-d][1,3]oxazin-2-one compounds and their use as mutant IDH1 inhibitors” (Eli Lilly and Company, priority 2015, dated 2019).

SMILES strings stand for the structures. Like-named read-outs stand apart in the source and are kept apart here. Some results are limits rather than exact numbers.

By IC50 is commonly meant the midpoint of a concentration-inhibition curve. With `C=CC(=O)N1CC(CCc2ccc([C@H](C)Nc3ncc4c(n3)N(CC)C(=O)OC4)cc2)C1` [Example 7, 1-Ethyl-7-[[(1S)-1-[4-[2-(1-prop-2-enoylazetidin-3-yl)ethyl]phenyl]ethyl]amino]-4H-pyrimido[4,5-d][1,3]oxazin-2-one], the IC50 by setting is: under setting [1], 38.7 ± 1.3 nM; under setting [2], > 20000 nM.

As to `C=CC(=O)N1CCN(Cc2ccc([C@H](C)Nc3ncc4c(n3)N(CC)C(=O)OC4)cc2F)CC1` [Example 16, 1-Ethyl-7-[[(1S)-1-[3-fluoro-4-[(4-prop-2-enoylpiperazin-1-yl)methyl]phenyl]ethyl]amino]-4H-pyrimido[4,5-d][1,3]oxazin-2-one], the IC50 under setting [1] stood at 34.9 ± 17.1 nM and the IC50 under setting [2] was > 20000 nM.

As for `C=CC(=O)N1CC=C(COc2ccc([C@H](C)Nc3ncc4c(n3)N(CC)C(=O)OC4)cc2)C1` [Example 22, 1-ethyl-7-[[(1S)-1-[4-[(1-prop-2-enoyl-2,5-dihydropyrrol-3-yl)methoxy]phenyl]ethyl]amino]-4H-pyrimido[4,5-d][1,3]oxazin-2-one], the IC50 under setting [1] was 43.1 ± 44 nM and the IC50 under setting [2] was > 20000 nM.

For the molecule `C=CC(=O)N1CC2(CN(Cc3ccc([C@H](C)Nc4ncc5c(n4)N(C(C)C)C(=O)OC5)cc3)C2)C1` [Example 15, 1-Isopropyl-7-[[(1S)-1-[4-[(2-prop-2-enoyl-2,6-diazaspiro[3.3]heptan-6-yl)methyl]phenyl]ethyl]amino]-4H-pyrimido[4,5-d][1,3]oxazin-2-one], the HT1080 (R132C, 2-hydroxyglutarate) IC50 (HT-1080, 19 h) was 0.0278 ± 0.00623 µM. In addition, the IC50 under setting [2] was > 20000 nM.

Take `C=CC(=O)N1CCC(N(C)Cc2ccc([C@H](C)Nc3ncc4c(n3)N(CC)C(=O)OC4)cc2)CC1` [Example 12, 1-Ethyl-7-[[(1S)-1-[4-[[methyl-(1-prop-2-enoyl-4-piperidyl)amino]-methyl]phenyl]ethyl]amino]-4H-pyrimido[4,5-d][1,3]oxazin-2-one]: the IC50 under setting [1] turned out to be 120 ± 20 nM and the IC50 under setting [2] is > 20000 nM.

`C=CC(=O)N1CCC2(CC1)CN(Cc1ccc([C@H](C)Nc3ncc4c(n3)N(C(C)C)C(=O)OC4)cc1)C2` [Example 8, 1-Isopropyl-7-[[(1S)-1-[4-[(7-prop-2-enoyl-2,7-diazaspiro[3.5]nonan-2-yl)methyl]phenyl]ethyl]amino]-4H-pyrimido[4,5-d][1,3]oxazin-2-one]: the IC50 is 77 ± 42.5 nM under setting [1] and > 20000 nM under setting [2].

As to `C=CC(=O)N1CC(COc2ccc([C@H](C)Nc3ncc4c(n3)N(CC)C(=O)OC4)cc2)C1` [Example 17, 1-Ethyl-7-[[(1S)-1-[4-[(1-prop-2-enoylazetidin-3-yl)methoxy]phenyl]ethyl]amino]-4H-pyrimido[4,5-d][1,3]oxazin-2-one], the IC50 by setting is: under setting [1], 99 ± 35.1 nM; under setting [2], > 20000 nM.

For `C=CC(=O)N1CC(COc2ccc([C@H](C)Nc3ncc4c(n3)N(C(C)C)C(=O)OC4)cc2)C1` [Example 9, 1-Isopropyl-7-[[(1S)-1-[4-[(1-prop-2-enoylazetidin-3-yl)methoxy]-phenyl]ethyl]amino]-4H-pyrimido[4,5-d][1,3]oxazin-2-one], the IC50 reads like this: under setting [1], 32.3 ± 11.7 nM; under setting [2], > 20000 nM.

On to `C=CC(=O)N1CC2(CN(Cc3ccc([C@H](C)Nc4ncc5c(n4)N(CC(C)C)C(=O)OC5)cc3)C2)C1` [Example 5, 1-Isobutyl-7-[[(1S)-1-[4-[(2-prop-2-enoyl-2,6-diazaspiro[3.3]heptan-6-yl)methyl]phenyl]ethyl]amino]-4H-pyrimido[4,5-d][1,3]oxazin-2-one], for which the half-maximal inhibitory concentration (IC50) runs as follows: under setting [1], 44.7 ± 19.3 nM; under setting [2], > 20000 nM.

Consider `C=CC(=O)N1CCN(Cc2ccc([C@H](C)Nc3ncc4c(n3)N(CC(C)C)C(=O)OC4)cc2)CC1` [Example 3, 1-Isobutyl-7-[[(1S)-1-[4-[(4-prop-2-enoylpiperazin-1-yl)methyl]phenyl]ethyl]amino]-4H-pyrimido[4,5-d][1,3]oxazin-2-one], for which the HT1080 (R132C, 2-hydroxyglutarate) IC50 (HT-1080, 19 h) was 0.0231 ± 0.0024 µM. Under setting [2], the IC50 was > 20000 nM.

Take `C=CC(=O)N1CC(OCc2ccc([C@H](C)Nc3ncc4c(n3)N(CC)C(=O)OC4)cc2)C1` [Example 4, 1-Ethyl-7-[[(1S)-1-[4-[(1-prop-2-enoylazetidin-3-yl)oxymethyl]phenyl]ethyl]amino]-4H-pyrimido[4,5-d][1,3]oxazin-2-one]: where the note is “HT-1080, 19 h”, the HT1080 (R132C, 2-hydroxyglutarate) IC50 was determined as 0.0283 ± 0.0147 µM. For the same molecule, the IC50 under setting [2] was > 20000 nM.

Consider `C=CC(=O)N1CC2(CN(Cc3ccc([C@H](C)Nc4ncc5c(n4)N(CC)C(=O)OC5)cc3)C2)C1` [Example 14, 1-Ethyl-7-[[(1S)-1-[4-[(2-prop-2-enoyl-2,6-diazaspiro[3.3]heptan-6-yl)methyl]phenyl]ethyl]amino]-4H-pyrimido[4,5-d][1,3]oxazin-2-one], for which the IC50 runs as follows: under setting [1], 89.8 ± 55.2 nM; under setting [2], > 20000 nM.

With `C=CC(=O)N1CC(N(C)Cc2ccc([C@H](C)Nc3ncc4c(n3)N(CC)C(=O)OC4)cc2)C1` [Example 10, 1-Ethyl-7-[[(1S)-1-[4-[[methyl-(1-prop-2-enoylazetidin-3-yl)amino]methyl]-phenyl]ethyl]amino]-4H-pyrimido[4,5-d][1,3]oxazin-2-one], the half-inhibitory concentration (IC50) reads like this: under setting [1], 97.8 ± 43.1 nM; under setting [2], > 20000 nM.

Turning to `C=CC(=O)N1CCN(Cc2ccc([C@H](C)Nc3ncc4c(n3)N(C)C(=O)OC4)cc2)CC1` [Example 19, 1-Methyl-7-[[(1S)-1-[4-[(4-prop-2-enoylpiperazin-1-yl)methyl]phenyl]ethyl]amino]-4H-pyrimido[4,5-d][1,3]oxazin-2-one], the IC50 under setting [2] is > 20000 nM.

For `C=CC(=O)N1CCN(Cc2ccc([C@H](C)Nc3ncc4c(n3)N(CC(F)F)C(=O)OC4)cc2)CC1` [Example 20, 1-(2,2-difluoroethyl)-7-[[(1S)-1-[4-[(4-prop-2-enoylpiperazin-1-yl)methyl]phenyl]ethyl]amino]-4H-pyrimido[4,5-d][1,3]oxazin-2-one], the IC50 under setting [1] worked out at 95.5 ± 24.9 nM and the IC50 under setting [2] is > 20000 nM.

Take `C=CC(=O)N1CC(OCc2ccc([C@H](C)Nc3ncc4c(n3)N(CC(C)C)C(=O)OC4)cc2)C1` [Example 13, 1-Isobutyl-7-[[(1S)-1-[4-[(1-prop-2-enoylazetidin-3-yl)oxymethyl]phenyl]ethyl]amino]-4H-pyrimido[4,5-d][1,3]oxazin-2-one]: the IC50 by setting is: under setting [1], 128 ± 9 nM; under setting [2], > 20000 nM.

Regarding `C=CC(=O)N1CCN(Cc2ccc([C@H](C)Nc3ncc4c(n3)N(CCF)C(=O)OC4)cc2)CC1` [Example 21, 1-(2-fluoroethyl)-7-[[(1S)-1-[4-[(4-prop-2-enoylpiperazin-1-yl)methyl]phenyl]ethyl]amino]-4H-pyrimido[4,5-d][1,3]oxazin-2-one], the half-inhibitory concentration (IC50) is 408 nM under setting [1] and > 20000 nM under setting [2].

On to `C=CC(=O)N1CCN(Cc2ccc([C@H](C)Nc3ncc4c(n3)N([C@H](C)CO)C(=O)OC4)cc2)CC1` [Example 11, 1-[(1R)-2-Hydroxy-1-methyl-ethyl]-7-[[(1S)-1-[4-[(4-prop-2-enoylpiperazin-1-yl)methyl]phenyl]ethyl]amino]-4H-pyrimido[4,5-d][1,3]oxazin-2-one], for which the HT1080 (R132C, 2-hydroxyglutarate) IC50 (HT-1080, 19 h) was found to be 0.0321 ± 0.0108 µM. The IC50 under setting [2] is > 20000 nM.

As for `C=CC(=O)N1CCN(c2ccc([C@H](C)Nc3ncc4c(n3)N(C(C)C)C(=O)OC4)cc2)CC1` [Example 6, 1-Isopropyl-7-[[(1S)-1-[4-(4-prop-2-enoylpiperazin-1-yl)phenyl]ethyl]amino]-4H-pyrimido[4,5-d][1,3]oxazin-2-one], the IC50 under setting [1] came to 153 ± 82 nM and the IC50 under setting [2] was > 20000 nM.
